This is an account of results in US11692008B2, “Preparation and uses of reactive oxygen species scavenger derivatives” (XWPHARMA LTD., priority 2017, dated 2023).

Molecules are shown by their SMILES. Where two headings read alike, the source gives them in different places.

One assay relates to 3T3-L1 cells. The assay is described as follows: Apoptosis assay (Caspase-Glo 3/7, Actinomycin D induced). Particulars: 100 nM Actinomycin D, read-out: EC50, inhibition for apoptosis in 3T3-L1 cell induced by Actinomycin D. The format is cell-based. The method, then: Cell Lines and Media. 3T3-L1 cells were obtained from American Type Culture Collection. Cells were grown in DMEM completed media, 10% FBS, and penicillin-streptomycin mix (Invitrogen). Cells were maintained at 37° C. and 5% CO2 in a tissue culture incubator.
Apoptosis Assay. […] We used this assay to screen our compounds for apoptosis inhibition. Briefly, 40 μL of 3000 3T3-L1 cells were seeded per well in 384 well plates, Cells were allowed to adhere overnight. In the next day, prepare the Actinomycin D as the apoptosis inducing agent into 100 μM DMSO stock. Prepare the test compounds into 10 mM DMSO stock. Serial dilute the compound into 10 points by 3-fold dilution with DMSO. Pre-treat the 3T3-L1 cells with test compound by transfer 40 nL of stock of serial concentration in triplicate wells using acoustic fluid transfer, incubate for 2 hours. Then transfer 40 nL of 100 μM of Actinomycin D (final concentration is 100 nM) into designated wells using acoustic fluid transfer. Incubate the assay plates at 37° C., 5% CO2, 95% humidity incubator for 48 hours. For caspase assay, add 20 μL/well of Caspase-Glo® 3/7 reagent (Promega) into test wells. Incubate for 30 minutes at room temperature to stabilize the luminescence signal. Read the plate with EnSpire Multimode Plate Reader (PerkinElmer). Calculate the EC50 value using formula equation 201: y=(A+((B−A)/(1+((x/C)^D)))) from the XLFit (Excel add-in software), where • A: Average mean of vehicle samples • B: Average mean of cells treated with 100 nM AcD • C: EC50 • D: HillSlope Z′ factor was used to describe the screening assay performance. The Z′ factor value was >0.5 in all the test plates which indicated the assay was qualified and the IC50 value was reliable for all tested compounds.

The test system of a further assay is HT-1080 cells. Briefly: Ferroptosis cell viability assay (Erastin-induced, CellTiter-Glo). The format is cell-based. The note with it: read-out: EC50, inhibition for ferroptosis in HT-1080 cell. The method, then: Cell Lines and Media: HT-1080 (fibrosarcoma) cells were obtained from American Type Culture Collection. Cells were grown in EMEM media, 10% Heat-Inactivated FBS, and penicillin-streptomycin mix (Invitrogen). Cells were maintained at 37° C. and 5% CO2 in a tissue culture incubator.
Cell Viability Assay. Seed 10,000 cell/well of HT-1080 cells with 195 μL growth media in black and clear bottom 96-well plates (Cat #Corning3904) and allow cells to adhere overnight. The next day, dilute test compound by 2-fold dilution into 12 points with medium containing 400 μM Erastin. Transfer 5 μL of compounds solution into growth medium in triplicated wells. 30 hours later, add Cell Titer-Glo® Luminescent cell viability assay reagent (Cat #, Promega G8081) to measure HT-1080 cell viability according to the manufacture protocol. Briefly, aspirate 100 μL medium, and add 50 μL CellTiter-Glo® Luminescent reagent to each well and incubated for 30 minutes at room temperature to stabilize the Luminescent signal. Seal the plates and centrifuged for 1 minute at 1,000 rpm to remove bubbles. Shake the plates for 1 minute on an orbital shaker. Read the plate to detect Luminescent signal with EnSpire Multimode Plate Reader (PerkinElmer). The remaining activity % is used to evaluate Erastin induced ferroptosis in HT-1080 cells and expressed as the following formula: % Remaining Activity=100×[(Sample−Backgroundavg)/(Vehicle−Backgroundavg)]
Sample: Readout from the test compound
Vehicle: Readout from the vehicle sample
Background: Readout from the Erastin only treatment
Dose response curve is graphed by using the non-linear regression analysis (formula equation 201) in XLFit (Excel add-in software) for the average % remaining activity from triplicates, and the EC50 values is then calculated. In this anti-ferroptosis assay, ferrostatin-1, and XJB-5-131 are included as reference. The acceptance criteria were set based on historical result, mean±2.58*SD in logarithmic scale, meanwhile Z′>0.5.
For orientation: ATP-based viability assays read luminescence as a measure of living cells.

Broadly, the EC50 is the concentration that produces a half-maximal response. Turning to `CC1=C(C)C(=O)C(CCC(=O)NCCCC[C@H](NC(=O)[C@@H]2CCCN2C(=O)[C@H](/C=C/[C@H](CC(C)C)NC(=O)OC(C)(C)C)Cc2ccccc2)C(=O)NC(C)C)=CC1=O` [I, tert-Butyl ((4S,7S,E)-7-benzyl-8-((S)-2-(((S)-6-(3-(4,5-dimethyl-3,6-dioxocyclohexa-1,4-dien-1-yl)propanamido)-1-(isopropylamino)-1-oxohexan-2-yl)carbamoyl)pyrrolidin-1-yl)-2-methyl-8-oxooct-5-en-4-yl)carbamate], the concentration giving a half-maximal response (EC50) with 3T3-L1 cells (Mus musculus, 3T3-L1, 48 h) was 1150 nM; with HT-1080 cells (30 hours), 119 nM.

With `COC1=C(OC)C(=O)C(CCCCCCCCCCOC(=O)NCCCC[C@H](NC(=O)[C@@H]2CCCN2C(=O)[C@H](/C=C/[C@H](CC(C)C)NC(=O)OC(C)(C)C)Cc2ccccc2)C(=O)NC(C)C)=C(C)C1=O` [III, tert-butyl N-[(4S,5E,7S)-7-benzyl-8-[(2S)-2-{[(1S)-5-[({[10-(4,5-dimethoxy-2-methyl-3,6-dioxocyclohexa-1,4-dien-1-yl)decyl]oxy}carbonyl)amino]-1-[(propan-2-yl)carbamoyl]pentyl]carbamoyl}pyrrolidin-1-yl]-2-methyl-8-oxooct-5-en-4-yl]carbamate], in the assay on HT-1080 cells (Homo sapiens, HT-1080, 30 h), the 50% effective concentration (EC50) came out at 34.6 nM.

On to `CC1=C(C)C(=O)C(CCCOC(=O)NCCCC[C@H](NC(=O)[C@@H]2CCCN2C(=O)[C@H](/C=C/[C@H](CC(C)C)NC(=O)OC(C)(C)C)Cc2ccccc2)C(=O)NC(C)C)=CC1=O` [II], for which the concentration giving a half-maximal response (EC50) in the assay with HT-1080 cells (30 hours) was 33 nM.

Turning to `CC1=C(C)C(=O)C(CCC(=O)NCCCC[C@H](NC(=O)[C@@H]2CCCN2C(=O)[C@H](/C=C/[C@H](CC(C)C)NC(=O)OC(C)(C)C)Cc2ccccc2)C(=O)NC(C)C)=CC1=O` [IV, tert-Butyl ((4S,7S,E)-7-benzyl-8-((S)-2-(((S)-6-(3-(4,5-dimethyl-3,6-dioxocyclohexa-1,4-dien-1-yl)propanamido)-1-(isopropylamino)-1-oxohexan-2-yl)carbamoyl)pyrrolidin-1-yl)-2-methyl-8-oxooct-5-en-4-yl) carbamate], the 50% effective concentration (EC50) in the assay on 3T3-L1 cells (48 hours) stood at 702 nM; in the assay with HT-1080 cells (30 hours) it was 24.4 nM.

Consider `CC1=C(C)C(=O)C(CCCOC(=O)NCCCC[C@H](NC(=O)[C@@H]2CCCN2C(=O)[C@H](/C=C/[C@H](CC(C)C)NC(=O)OCC2CC2)Cc2ccccc2)C(=O)NC(C)C)=C(C)C1=O` [IX, Cyclopropylmethyl N-[(4S,5E,7S)-7-benzyl-2-methyl-8-oxo-8-[(2S)-2-{[(1S)-1-[(propan-2-yl)carbamoyl]-5-({[3-(2,4,5-trimethyl-3,6-dioxocyclohexa-1,4-dien-1-yl)propoxy]carbonyl}amino)pentyl]carbamoyl}pyrrolidin-1-yl]oct-5-en-4-yl]carbamate], for which the EC50 with HT-1080 cells (Homo sapiens, HT-1080, 30 h) is 49.3 nM.

As to `CC1=C(C)C(=O)C(CCCOC(=O)NCCCC[C@H](NC(=O)[C@@H]2CCCN2C(=O)[C@H](/C=C/[C@H](CC(C)C)NC(=O)OC(C)(C)C)Cc2ccccc2)C(=O)NC(C)C)=CC1=O` [V, tert-butyl N-[(4S,5E,7S)-7-benzyl-8-[(2S)-2-{[(1S)-5-({[3-(4,5-dimethyl-3,6-dioxocyclohexa-1,4-dien-1-yl)propoxy]carbonyl}amino)-1-[(propan-2-yl)carbamoyl]pentyl]carbamoyl}pyrrolidin-1-yl]-2-methyl-8-oxooct-5-en-4-yl]carbamate], the 50% effective concentration (EC50) in the assay on 3T3-L1 cells (Mus musculus, 3T3-L1, 48 h) came out at 2740 nM; in the assay with HT-1080 cells (Homo sapiens, HT-1080, 30 h), 196 nM.

For the compound `CCOC(=O)N[C@H](/C=C/[C@H](Cc1ccccc1)C(=O)N1CCC[C@H]1C(=O)N[C@@H](CCCCC1=C(C)C(=O)C(C)=C(C)C1=O)C(=O)NC(C)C)CC(C)C` [VII, ethyl ((4S,7S,E)-7-benzyl-8-((S)-2-(((S)-1-(isopropylamino)-1-oxo-6-(2,4,5-trimethyl-3,6-dioxocyclohexa-1,4-dien-1-yl)hexan-2-yl)carbamoyl)pyrrolidin1-yl)-2-methyl-8-oxooct-5-en-4-yl)carbamate], in the assay with HT-1080 cells (Homo sapiens, HT-1080, 30 h), the 50% effective concentration (EC50) is 80.5 nM.

Consider `COc1c(C)c(C)c(OC)c(CCCOC(=O)NCCC[C@H](NC(=O)[C@@H](NC(=O)[C@@H]2CCCN2C(=O)[C@H](/C=C/[C@H](CC(C)C)NC(=O)OC(C)(C)C)Cc2ccccc2)C(C)C)C(=O)NC(C)C)c1C` [VIII, tert-butyl N-[(4S,5E,7S)-7-benzyl-8-[(2S)-2-{[(1S)-1-{[(1S)-4-({[3-(2,5-dimethoxy-3,4,6-trimethylphenyl)propoxy]carbonyl}amino)-1-[(propan-2-yl)carbamoyl]butyl]carbamoyl}-2-methylpropyl]carbamoyl}pyrrolidin-1-yl]-2-methyl-8-oxooct-5-en-4-yl]carbamate], for which, in the assay with HT-1080 cells (Homo sapiens, HT-1080, 30 h), the EC50 was over 6000 nM.

`CC1=C(C)C(=O)C(CCCC[C@H](NC(=O)[C@@H]2CCCN2C(=O)[C@H](/C=C/[C@H](CC(C)C)NC(=O)OC(C)(C)C)Cc2ccccc2)C(=O)NC(C)C)=C(C)C1=O` [VI]: the EC50 in the assay on 3T3-L1 cells (48 hours) is 7320 nM; in the assay on HT-1080 cells (30 hours) it was 39.1 nM.

For `CC1=C(C)C(=O)C(CCCOc2ccc(C[C@H](NC(=O)[C@@H]3CCCN3C(=O)[C@H](/C=C/[C@H](CC(C)C)NC(=O)OC(C)(C)C)Cc3ccccc3)C(=O)NC(C)C)cc2)=C(C)C1=O` [X, tert-Butyl ((4S,7S,E)-7-benzyl-8-((S)-2-(((S)-1-(isopropylamino)-1-oxo-3-(4-(3-(2,4,5-trimethyl-3,6-dioxocyclohexa-1,4-dien-1-yl)propoxy)phenyl)propan-2-yl)carbamoyl)pyrrolidin-1-yl)-2-methyl-8-oxooct-5-en-4-yl)carbamate], the 50% effective concentration (EC50) with HT-1080 cells (Homo sapiens, HT-1080, 30 h) worked out at 56.9 nM.

As to `CC1=C(C)C(=O)C(CCCOC(=O)NCCC[C@H](NC(=O)[C@@H](NC(=O)[C@@H]2CCCN2C(=O)[C@H](/C=C/[C@H](CC(C)C)NC(=O)OC(C)(C)C)Cc2ccccc2)C(C)C)C(=O)NC(C)C)=C(C)C1=O` [XI, tert-butyl N-[(4S,5E,7S)-7-benzyl-2-methyl-8-[(2S)-2-{[(1S)-2-methyl-1-{[[(1S)-1-[(propan-2-yl)carbamoyl]-4-({3-(2,4,5-trimethyl-3,6-dioxocyclohexa-1,4-dien-1-yl)propoxy]carbonyl}amino)butyl]carbamoyl}propyl]carbamoyl}pyrrolidin-1-yl]-8-oxooct-5-en-4-yl]carbamate], the EC50 in the assay on HT-1080 cells (Homo sapiens, HT-1080, 30 h) is 47 nM.

For `CC1=C(C)C(=O)C(CCCOC(=O)NCCC[C@H](NC(=O)[C@@H]2CCCN2C(=O)[C@H](/C=C/[C@H](CC(C)C)NC(=O)OC(C)(C)C)Cc2ccccc2)C(=O)NC2CC2)=C(C)C1=O` [XII, 3-(2,4,5-trimethyl-3,6-dioxocyclohexa-1,4-dien-1-yl)propyl N-[(4S)-4-{[(2S)-1-[(2S,3E,5S)-2-benzyl-5-{[(tert-butoxy)carbonyl]amino}-7-methyloct-3-enoyl]pyrrolidin-2-yl]formamido}-4-(cyclopropylcarbamoyl)butyl] carbamate], the EC50 in the assay with HT-1080 cells (Homo sapiens, HT-1080, 30 h) came to 149 nM.
